Test results published in the supplement of paper PMC10307832.

Columns and labels:
Assay in all cases: relative viability (nuclei count vs DMSO), 5 days (fraction); higher = more cells survive
BI-D1870 + Phenformin = compound: CC(C)CCN1c2nc(Nc3cc(F)c(O)c(F)c3)ncc2N(C)C(=O)C1C [BI-D1870] + N=C(N)NC(=N)NCCc1ccccc1 [Phenformin] (partner 250 µM)
In short: (§1)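 Values are medians from duplicate plates. Each reflects relative viability, defined as the nuclei count of treated wells over that of vehicle wells. Lung cancer cell lines in 1536-well plates were pin-tool dosed one day after seeding with one drug alone or with a fixed anchor-drug dose plus five library-drug doses (not always all listed) in √10 steps, then fixed, stained and imaged at 4× after 5 days.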

Zebularine + Bortezomib = compound: O=c1ncccn1[C@@H]1O[C@H](CO)[C@@H](O)[C@H]1O [Zebularine] + CC(C)C[C@H](NC(=O)[C@H](Cc1ccccc1)NC(=O)c1cnccn1)B(O)O [Bortezomib] (partner 0.002 µM)
In short: as §1

Zebularine + Lapatinib = compound: O=c1ncccn1[C@@H]1O[C@H](CO)[C@@H](O)[C@H]1O [Zebularine] + CS(=O)(=O)CCNCc1ccc(-c2ccc3ncnc(Nc4ccc(OCc5cccc(F)c5)c(Cl)c4)c3c2)o1 [Lapatinib] (partner 2 µM)
In short: as §1

BI-D1870 + Tozasertib = compound: CC(C)CCN1c2nc(Nc3cc(F)c(O)c(F)c3)ncc2N(C)C(=O)C1C [BI-D1870] + Cc1cc(Nc2cc(N3CCN(C)CC3)nc(Sc3ccc(NC(=O)C4CC4)cc3)n2)n[nH]1 [Tozasertib] (partner 0.1 µM)
In short: as §1

| Cell Line | relative viability (BI-D1870 + Phenformin; first compound 0.04 µM) | relative viability (BI-D1870 + Phenformin; first compound 0.1265 µM) | relative viability (BI-D1870 + Phenformin; first compound 0.4 µM) | relative viability (BI-D1870 + Phenformin; first compound 1.265 µM) | relative viability (BI-D1870 + Phenformin; first compound 4 µM) | relative viability (Zebularine + Bortezomib; first compound 1 µM) | relative viability (Zebularine + Bortezomib; first compound 3.162 µM) | relative viability (Zebularine + Bortezomib; first compound 10 µM) | relative viability (Zebularine + Bortezomib; first compound 31.62 µM) | relative viability (Zebularine + Bortezomib; first compound 100 µM) | relative viability (Zebularine + Lapatinib; first compound 1 µM) | relative viability (Zebularine + Lapatinib; first compound 3.162 µM) | relative viability (Zebularine + Lapatinib; first compound 10 µM) | relative viability (Zebularine + Lapatinib; first compound 31.62 µM) | relative viability (Zebularine + Lapatinib; first compound 100 µM) | relative viability (BI-D1870 + Tozasertib; first compound 0.04 µM) | relative viability (BI-D1870 + Tozasertib; first compound 0.1265 µM) | relative viability (BI-D1870 + Tozasertib; first compound 0.4 µM) | relative viability (BI-D1870 + Tozasertib; first compound 1.265 µM) | relative viability (BI-D1870 + Tozasertib; first compound 4 µM) |
| --- | --- | --- | --- | --- | --- | --- | --- | --- | --- | --- | --- | --- | --- | --- | --- | --- | --- | --- | --- | --- |
| HCC-15 | 0.56 | 0.468 | 0.417 | 0.426 | 0.394 | 1.19 | 1.03 | 0.723 | 0.962 | 0.456 | 0.941 | 0.822 | 0.74 | 0.825 | 0.401 | 0.523 | 0.347 | 0.33 | 0.333 | 0.185 |
| IA-LM | – | – | – | – | – | 0.63 | 0.892 | 0.617 | 1.03 | 0.672 | 0.908 | 1.07 | – | 0.773 | 0.599 | – | – | – | – | – |
| LCLC-103H | 0.376 | 0.301 | 0.316 | 0.36 | 0.324 | 1.19 | 1.1 | 0.886 | 1.19 | 1.01 | – | – | – | – | – | 0.44 | 0.285 | 0.465 | 0.565 | 0.49 |
| LK-2 | 0.631 | 0.437 | 0.451 | 0.545 | 0.217 | – | – | – | – | – | 0.947 | 1.04 | 0.584 | 0.539 | 0.283 | 0.146 | 0.175 | 0.172 | 0.175 | 0.148 |
| NCI-H358 | 0.405 | 0.289 | 0.343 | 0.326 | 0.218 | – | – | – | – | – | 0.48 | 0.401 | 0.44 | 0.467 | 0.303 | 0.124 | 0.0956 | 0.118 | 0.127 | 0.113 |
| NCI-H441 | 1.02 | 0.832 | 0.74 | 1.17 | 0.872 | 0.355 | 0.278 | 0.352 | 0.235 | 0.245 | – | – | – | – | – | 0.56 | 0.531 | 0.59 | 0.504 | 0.407 |
| NCI-H522 | 0.754 | 0.603 | 0.677 | 0.763 | 0.692 | – | – | – | – | – | – | – | – | – | – | 0.559 | 0.648 | 0.583 | 0.505 | 0.533 |
| NCI-H1299 | – | – | – | – | – | 1.01 | 1.06 | 0.969 | 1.08 | 0.747 | 0.965 | 0.937 | 0.619 | 0.968 | 0.493 | – | – | – | – | – |
| NCI-H1395 | 0.451 | 0.418 | 0.464 | 0.456 | 0.427 | – | – | – | – | – | 1.27 | 1.04 | 0.799 | 0.702 | 0.507 | 0.818 | 0.685 | 0.718 | 0.72 | 0.721 |
| NCI-H1563 | 0.669 | 0.651 | 0.643 | 0.682 | 0.728 | 0.826 | 1.02 | 0.874 | 1.04 | 0.928 | 1 | 0.782 | 0.907 | 1.13 | 0.946 | – | – | – | – | – |
| NCI-H1623 | 0.574 | 0.494 | 0.562 | 0.572 | 0.542 | – | – | – | – | – | – | – | – | – | – | 0.404 | 0.412 | 0.478 | 0.452 | 0.376 |
| NCI-H1648 | – | – | – | – | – | – | – | – | – | – | – | – | – | – | – | 0.479 | 0.48 | 0.371 | 0.566 | 0.412 |
| NCI-H1703 | – | – | – | – | – | 0.273 | 0.302 | 0.296 | 0.512 | 0.411 | 0.994 | 0.979 | – | 1.52 | 0.952 | – | – | – | – | – |
| NCI-H1792 | 0.361 | 0.289 | 0.259 | 0.504 | 0.508 | 0.989 | 0.932 | 0.369 | 0.382 | 0.359 | 0.978 | 0.879 | 0.416 | 0.428 | 0.284 | – | – | – | – | – |
| NCI-H1793 | 0.387 | 0.311 | 0.389 | 0.423 | 0.27 | – | – | – | – | – | 0.826 | 0.882 | 0.339 | 0.648 | 0.304 | 0.376 | 0.246 | 0.207 | 0.275 | 0.226 |
| NCI-H1944 | 0.218 | 0.185 | 0.184 | 0.237 | 0.205 | – | – | – | – | – | 0.975 | 0.864 | 0.613 | 0.932 | 0.757 | 0.293 | 0.233 | 0.25 | 0.262 | 0.235 |
| NCI-H2170 | 0.439 | 0.414 | 0.415 | 0.423 | 0.441 | – | – | – | – | – | 0.302 | 0.263 | 0.251 | 0.26 | 0.266 | 0.701 | 0.715 | 0.713 | 0.648 | 0.574 |
| NCI-H2342 | 0.546 | 0.609 | 0.606 | 0.733 | 0.829 | – | – | – | – | – | – | – | – | – | – | 0.491 | 0.374 | 0.538 | 0.481 | 0.515 |
| SK-MES-1 | 0.732 | 0.593 | 0.613 | 0.648 | 0.363 | – | – | – | – | – | 0.484 | 0.435 | 0.397 | 0.427 | 0.269 | 1.06 | 0.82 | 0.766 | 0.607 | 0.22 |
| SW 900 | 0.748 | 0.452 | 0.63 | 0.672 | 0.618 | – | – | – | – | – | – | – | – | – | – | 0.472 | 0.542 | 0.463 | 0.408 | 0.284 |
